Where “and” joins values, the source holds several entries; their conditions need not be identical. Equal entries are not always repeated.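 Tested at 5 concentrations; 48 h exposure; 96-well plates; endpoints linearly interpolated, else capped at highest concentration. GI50: concentration for 50% inhibition of growth. TGI marks complete inhibition of growth.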
Legend:
SN12K1 renal = test: NCI tumour cell line growth inhibition, 48 h
P388/ADR leukemia = test: NCI tumour cell line growth inhibition, 48 h

SMILES	GI50 (SN12K1 renal) [nM]	TGI (SN12K1 renal)	GI50 (P388/ADR leukemia)	TGI (P388/ADR leukemia) [nM]
C[C@@](O)(/C=C/[C@H]1CC=CC(=O)O1)[C@@H](C[C@@H](O)\C=C/C=C\C=C\CO)OP(=O)(O)O	2690	30700 nM and 19300 nM	963 nM and 989 nM	
O=C1N[C@H]2[C@H](O)[C@H](O)[C@@H](O)[C@H](O)[C@@H]2c2cc3c(c(O)c21)OCO3		360 nM		210

— PubChem BioAssay (NCI)
